For this assay, the system named is Aorta. Nature of the assay: Vasorelaxation activity against phenylephrine-stimulated contraction in Wistar rat thoracic aorta at 30 uM. Format: functional. Also on record: scale not given: the % may be the effect or the level left.
With `COC(=O)[C@@]1(c2cc3ccccc3[nH]2)COCC=C2CN(C)CC[C@@H]21` [6,7-SECO-ANGUSTILOBINE B], the Activity stood at 7%.

As to `COC(=O)[C@]1(CO)c2[nH]c3ccccc3c2[C@@H](C)[C@]2(O)CNCC[C@@H]21` [ALSTILOBANINE A], the Activity was determined as 44.3%.

`COC(=O)[C@@]12COCC[C@H]3[C@@H]1CC[N@@+](C)([O-])[C@H]3c1c2[nH]c2ccccc12` [ALSTILOBANINE B] returned an Activity of 21.2%.

Turning to `COC(=O)[C@@]12COCC[C@@H]3[C@@H](NCC[C@@H]31)c1c2[nH]c2ccccc12` [ALSTILOBANINE C], the Activity was determined as 28%.

With `COC(=O)[C@@]1(c2cc3ccccc3[nH]2)COCC=C2C[N@+](C)([O-])CC[C@@H]21` [ALSTILOBANINE D], the Activity amounted to 10%.

In turn, `COC(=O)[C@@]12COC[C@H](c3c1[nH]c1ccccc31)[C@]1(O)CNCC[C@@H]12` [ALSTILOBANINE E] registered an Activity of 6.8%.

For `O=C(O)[C@@]12COCC=C3CN(CC[C@@H]31)Cc1c2[nH]c2ccccc12` [ALSTONAMIC ACID], the Activity is 35%.

Compound `COC(=O)[C@]12COCC[C@@H]3[C@H](c4c1[nH]c1ccccc41)N(C)CC[C@@H]32` [UNDULIFOLINE] displayed an Activity of 33.3%.

For the origin of these results see ChEMBL document CHEMBL1157457, “Alstilobanines A-E, new indole alkaloids from Alstonia angustiloba” (2008).
